Measured values published in patent US6489475B2, “Method of producing heterocyclic derivatives” (Sankyo Company, Limited, priority 1994, dated 2002).
Marks after values point to notes of the source that are not given here.

Experiments:
LDL = LDL peroxidation inhibitory effect (copper sulfate, malondialdehyde by thiobarbituric acid method); format: biochemical, rabbit; conditions: concentration 10^-5M; 37°C, 24 hours; malondialdehyde production inhibitory ratio
Procedure: LDL Peroxidation Inhibitory Effect
Male Japanese white rabbits weighing 2-2.5 kg were bred on 100 g per day of a high cholesterol feed [added with cholesterol (1%), Clea Japan, Inc.] for 4 weeks. The blood was taken from carotid and plasma was obtained. Then, LDL was fractionated from the plasma by ultracentrifugation, dialyzed for one day and preserved at 4° C. LDL (400 μg) and aqueous copper sulfate solution (final concentration 5 μM) were added to bufferized Ham F-10 medium (2 ml, GIBCO, USA). DMSO or a solution (20 μl) of test compound dissolved in DMSO was added and the mixture was incubated at 37° C. for 24 hours. After the completion of the incubation, LDL peroxide in medium was allowed to develop color by thiobarbituric acid method and assayed as malondialdehyde. The activity of the test compound was expressed as malondialdehyde production inhibitory ratio (%), namely, the proportion of inhibition of production of malondialdehyde as compared to control.

Male Wister rats = assay: Serum total cholesterol reducing effect in rats on high cholesterol feed; format: in vivo; conditions: oral, once a day for 3 days, rat
Procedure: Serum Total Cholesterol Reducing Effect
Male Wister rats weighing 180-200 g were bred under free access to a high cholesterol feed [added with cholesterol (1%), cholic acid (0.5%) and coconut oil (10%), Clea Japan, Inc.] for 3 days, during which period a test compound (10-100 mg/kg) suspended in 5% gum arabic solution was forcibly administered once a day orally for 3 days. Only 5% gum arabic solution was administered to control animals. After final administration, the test animals were fasted for 5 hours and the blood was taken. The serum total cholesterol level was determined using a commercially available assay kit (cholesterol-E-Test Wako, Wako Pure Chemical Industries, Ltd.). The activity of the test compound was expressed as a proportion (%) of reduction of serum total cholesterol level, namely, the proportion of reduction of serum total cholesterol as compared to control.

ACAT = ACAT inhibitory activity (small intestine mucosa microsomes, [1-14C]-oleoyl CoA, cholesteryl oleate production); format: biochemical, rabbit; conditions: concentration 10^-5M; inhibition of cholesteryl oleate production vs control
Procedure: A high cholesterol feed [a feed added with cholesterol (1%), Clea Japan, Inc.] was fed to male Japanese white rabbits weighing 2-2.5 kg at 100 g per day and the rabbits were bred for 4 weeks. The rabbits were killed by bleeding under anesthesia and small intestine was removed. The mucous membrane of small intestine was peeled, collected and homogenated. The homogenate was centrifuged at 4° C. and 10,000 rpm for 15 min. The obtained supernatant was further centrifuged at 4° C. and 41,000 rpm for 30 minutes to give microsomal fractions. Using this microsomal suspension as an enzyme sample, dimethyl sulfoxide (DMSO, 5 μl) or a test compound dissolved in DMSO (test compound solution, 5 μl), and a reaction substrate [1-^14C]-oleoyl CoA were added to a reaction buffer. After incubation at 37° C. for 5 minutes, a chloroform-methanol mixture was added to stop the reaction. Water was added thereto and mixed, and chloroform layer was separated. The solvent was evaporated to dryness, and the residue was dissolved in hexane. The mixture was subjected to thin layer chromatography using a silica gel plate. The spots of cholesteryl oleate on the silica gel plate were scraped, and quantitatively assayed on a liquid scintillation counter. The ACAT inhibitory activity of the test compound was expressed as a proportion (%) of inhibition of cholesteryl oleate, namely, the proportion of inhibition of cholesteryl oleate production as compared to control.

plasma = assay: Plasma lipoperoxidation inhibitory effect (copper sulfate, malondialdehyde by thiobarbituric acid method); format: biochemical, rabbit; conditions: concentration 10^-5M; 37°C, 3 hours; malondialdehyde production inhibitory ratio
Procedure: Plasma Lipoperoxidation Inhibitory Effect
The blood was taken from male Japanese white rabbits weighing 2-2.5 kg under anesthesia and heparinized plasma was separated by a conventional method. To the plasma (2.0 ml) was added DMSO or a solution (20 μl, final concentration 10^−5 M) of test compound dissolved in DMSO, and aqueous copper sulfate solution (final concentration 5 mM) was added immediately thereafter. The mixture was incubated at 37° C. for 3 hours. After the completion of the incubation, 20% trichloroacetic acid was added to stop the reaction. Then, the mixture was centrifuged at 4° C., 4,500 rpm for 15 minutes. The lipoperoxide in the supernatant thus obtained was assayed as malondialdehyde upon color development by thiobarbituric acid method. The activity of the test compound was expressed as malondialdehyde production inhibitory ratio (%), namely, the proportion of inhibition of production of malondialdehyde as compared to control.

Row | Compound | Result of Exp. Ex. 3: LDL peroxidation inhibition (LDL) [%] | Result of Exp. Ex. 2: reduction of serum total cholesterol (Male Wister rats; dose 30 mg/kg/day) | Result of Exp. Ex. 1: ACAT inhibition (ACAT) | Result of Exp. Ex. 4: plasma lipoperoxidation inhibition (plasma) [%] | Result of Exp. Ex. 2: reduction of serum total cholesterol (Male Wister rats; dose 10 mg/kg/day)
1 | CCCCCCC(C)(C)C(=O)Nc1c(C)cc(C)c2c1N(CCCC)CC2 [Example 10] | 18.3 | 55.2 ** % | 98.7 ** % | 82.6 | 
2 | CC(C)(Sc1cc(C(C)(C)C)c(O)c(C(C)(C)C)c1)Sc1cc(C(C)(C)C)c(O)c(C(C)(C)C)c1 [Probucol, 4,4′-isopropylidenedithiobis(2,6-di-t-butylphenol), reference compound] | 89.4 |  | 3.4 ** % | 87.5 | 7.3 * %
